Source: publication PMC11005723, “Development of Complementary Photo‐arginine/lysine to Promote Discovery of Arg/Lys hPTMs Interactomes” (Advanced Science, 2024)
Non-standard residues stand in square brackets, D forms with d. No end group written: not given here. *: point of attachment. Biotin = O=C1N[C@H]2[C@H](CS[C@H]2CCCCC(=O)*)N1; R(dz) = photo-arginine

System: HEK293T nuclear lysates
Assay: SILAC‐based pull‐down proteomics H4K5acK8ac/H4K5 (probes 8/5)
Format: binding, human
Conditions: for B6 log2 (H4K5ac8ac/H4K5): replicate B6; for A6 log2 (H4K5ac8ac/H4K5): replicate A6
[1] = protein YWHAB, Bos taurus (CON_00829553.1)

probe 8: H4K5acK8ac peptide probe with photo‐arginine R(dz) and K(biotin) (SG[R(dz)]GK(Ac)GGK(Ac)GLGKGGK(Biotin))
B6 log2 (H4K5ac8ac/H4K5) (protein MYH9 (P35579)): -0.04782 | A6 log2 (H4K5ac8ac/H4K5) (protein NAA10 (P41227)): -0.3046 | B6 log2 (H4K5ac8ac/H4K5) (protein NAA10 (P41227)): 0.05206 | A6 log2 (H4K5ac8ac/H4K5) (protein NACC1 (Q96RE7)): 0.2811 | B6 log2 (H4K5ac8ac/H4K5) (protein NACC1 (Q96RE7)): 0.03418 | A6 log2 (H4K5ac8ac/H4K5) (protein NFXL1 (Q6ZNB6)): 0.2111 | B6 log2 (H4K5ac8ac/H4K5) (protein NFXL1 (Q6ZNB6)): 0.02469 | A6 log2 (H4K5ac8ac/H4K5) (protein NOL9 (Q5SY16)): -0.2567 | B6 log2 (H4K5ac8ac/H4K5) (protein NOL9 (Q5SY16)): -0.02031 | A6 log2 (H4K5ac8ac/H4K5) (protein PA2G4 (Q9UQ80)): 0.1563 | B6 log2 (H4K5ac8ac/H4K5) (protein PA2G4 (Q9UQ80)): 0.03904 | A6 log2 (H4K5ac8ac/H4K5) (protein PACSIN2 (Q9UNF0)): 0 | B6 log2 (H4K5ac8ac/H4K5) (protein PACSIN2 (Q9UNF0)): -0.04928 | A6 log2 (H4K5ac8ac/H4K5) (protein PBX1 (A0A087X0P4)): 0.6964 | B6 log2 (H4K5ac8ac/H4K5) (protein PBX1 (A0A087X0P4)): 0.06283 | A6 log2 (H4K5ac8ac/H4K5) (protein POLR1A (B9ZVN9)): 0.06415 | B6 log2 (H4K5ac8ac/H4K5) (protein POLR1A (B9ZVN9)): -0.04145 | A6 log2 (H4K5ac8ac/H4K5) (protein PPA1 (Q15181)): 0.1577 | B6 log2 (H4K5ac8ac/H4K5) (protein PPA1 (Q15181)): 0.07333 | A6 log2 (H4K5ac8ac/H4K5) (protein PPP1CB (P62140)): -0.299 | B6 log2 (H4K5ac8ac/H4K5) (protein PPP1CB (P62140)): -0.01665 | A6 log2 (H4K5ac8ac/H4K5) (protein PPWD1 (F5H7P7)): -0.2794 | B6 log2 (H4K5ac8ac/H4K5) (protein PPWD1 (F5H7P7)): -0.02682 | A6 log2 (H4K5ac8ac/H4K5) (protein PRPF4 (O43172)): -0.3068 | B6 log2 (H4K5ac8ac/H4K5) (protein PRPF4 (O43172)): -0.007391 | A6 log2 (H4K5ac8ac/H4K5) (protein PRPF19 (Q9UMS4)): -0.3378 | B6 log2 (H4K5ac8ac/H4K5) (protein PRPF19 (Q9UMS4)): 0.03114 | A6 log2 (H4K5ac8ac/H4K5) (protein RAB18 (Q9NP72)): -0.7664 | B6 log2 (H4K5ac8ac/H4K5) (protein RAB18 (Q9NP72)): 0.06785 | A6 log2 (H4K5ac8ac/H4K5) (protein RBBP4 (Q09028)): -0.301 | B6 log2 (H4K5ac8ac/H4K5) (protein RBBP4 (Q09028)): -0.04139 | A6 log2 (H4K5ac8ac/H4K5) (protein RBBP5 (Q15291)): 0.327 | B6 log2 (H4K5ac8ac/H4K5) (protein RBBP5 (Q15291)): 0.03881 | A6 log2 (H4K5ac8ac/H4K5) (protein RBM17 (Q5W011)): -0.1033 | B6 log2 (H4K5ac8ac/H4K5) (protein RBM17 (Q5W011)): -0.0008232 | A6 log2 (H4K5ac8ac/H4K5) (protein RFC4 (C9JTT7)): -0.05533 | B6 log2 (H4K5ac8ac/H4K5) (protein RFC4 (C9JTT7)): 0.05642 | A6 log2 (H4K5ac8ac/H4K5) (protein RIF1 (Q5UIP0)): 0.1175 | B6 log2 (H4K5ac8ac/H4K5) (protein RIF1 (Q5UIP0)): 0.06957 | A6 log2 (H4K5ac8ac/H4K5) (protein RLTPR (Q6F5E8)): 0.7852 | B6 log2 (H4K5ac8ac/H4K5) (protein RLTPR (Q6F5E8)): 0.007574 | A6 log2 (H4K5ac8ac/H4K5) (protein RNF113A (O15541)): -0.4653 | B6 log2 (H4K5ac8ac/H4K5) (protein RNF113A (O15541)): 0.03846 | A6 log2 (H4K5ac8ac/H4K5) (protein RPL18A (M0R3D6)): -0.4315 | B6 log2 (H4K5ac8ac/H4K5) (protein RPL18A (M0R3D6)): -0.04492 | A6 log2 (H4K5ac8ac/H4K5) (protein RPL23 (P62829)): -0.1756 | B6 log2 (H4K5ac8ac/H4K5) (protein RPL23 (P62829)): 0.05216 | A6 log2 (H4K5ac8ac/H4K5) (protein SART1 (O43290)): -0.3683 | B6 log2 (H4K5ac8ac/H4K5) (protein SART1 (O43290)): 0.001654 | A6 log2 (H4K5ac8ac/H4K5) (protein SEPT9 (Q9UHD8)): 0.1535 | B6 log2 (H4K5ac8ac/H4K5) (protein SEPT9 (Q9UHD8)): -0.026 | A6 log2 (H4K5ac8ac/H4K5) (protein SKP1 (E5RJR5)): -0.01806 | B6 log2 (H4K5ac8ac/H4K5) (protein SKP1 (E5RJR5)): 0.0159 | A6 log2 (H4K5ac8ac/H4K5) (protein SMARCC1 (Q92922)): -0.08326 | B6 log2 (H4K5ac8ac/H4K5) (protein SMARCC1 (Q92922)): 0.04543 | A6 log2 (H4K5ac8ac/H4K5) (protein SMC4 (E9PD53)): -0.08362 | B6 log2 (H4K5ac8ac/H4K5) (protein SMC4 (E9PD53)): 0.02245 | A6 log2 (H4K5ac8ac/H4K5) (protein SRP9 (P49458)): -0.01043 | B6 log2 (H4K5ac8ac/H4K5) (protein SRP9 (P49458)): 0.03654 | A6 log2 (H4K5ac8ac/H4K5) (protein SRPRB (H7C4H2)): 0.3686 | B6 log2 (H4K5ac8ac/H4K5) (protein SRPRB (H7C4H2)): 0.07795 | A6 log2 (H4K5ac8ac/H4K5) (protein STRAP (Q9Y3F4)): 0.01226 | B6 log2 (H4K5ac8ac/H4K5) (protein STRAP (Q9Y3F4)): 0.01225 | A6 log2 (H4K5ac8ac/H4K5) (protein STUB1 (Q9UNE7)): 0.5197 | B6 log2 (H4K5ac8ac/H4K5) (protein STUB1 (Q9UNE7)): 0.03834 | A6 log2 (H4K5ac8ac/H4K5) (protein SUGP2 (M0R3F6)): -0.3599 | B6 log2 (H4K5ac8ac/H4K5) (protein SUGP2 (M0R3F6)): 0.02065 | A6 log2 (H4K5ac8ac/H4K5) (protein SYMPK (Q92797)): -0.08997 | B6 log2 (H4K5ac8ac/H4K5) (protein SYMPK (Q92797)): -0.0308 | A6 log2 (H4K5ac8ac/H4K5) (protein TBC1D4 (O60343)): 0.1383 | B6 log2 (H4K5ac8ac/H4K5) (protein TBC1D4 (O60343)): -0.03399 | A6 log2 (H4K5ac8ac/H4K5) (protein TBL3 (Q12788)): -0.1597 | B6 log2 (H4K5ac8ac/H4K5) (protein TBL3 (Q12788)): -0.02533 | A6 log2 (H4K5ac8ac/H4K5) (protein TKT (P29401)): -0.1341 | B6 log2 (H4K5ac8ac/H4K5) (protein TKT (P29401)): 0.0497 | A6 log2 (H4K5ac8ac/H4K5) (protein TMPO (P42167)): 0.4117 | B6 log2 (H4K5ac8ac/H4K5) (protein TMPO (P42167)): 0.03759 | A6 log2 (H4K5ac8ac/H4K5) (protein TTLL12 (Q14166)): 0.2441 | B6 log2 (H4K5ac8ac/H4K5) (protein TTLL12 (Q14166)): 0.0292 | A6 log2 (H4K5ac8ac/H4K5) (protein TXLNG (Q9NUQ3)): 0.4545 | B6 log2 (H4K5ac8ac/H4K5) (protein TXLNG (Q9NUQ3)): -0.0116 | A6 log2 (H4K5ac8ac/H4K5) (protein UHRF1 (Q96T88)): -0.6652 | B6 log2 (H4K5ac8ac/H4K5) (protein UHRF1 (Q96T88)): 0.04746 | A6 log2 (H4K5ac8ac/H4K5) (protein UHRF2 (Q96PU4)): -0.006334 | B6 log2 (H4K5ac8ac/H4K5) (protein UHRF2 (Q96PU4)): 0.0767 | A6 log2 (H4K5ac8ac/H4K5) (protein UPF1 (Q92900)): -0.46 | B6 log2 (H4K5ac8ac/H4K5) (protein UPF1 (Q92900)): -0.01045 | A6 log2 (H4K5ac8ac/H4K5) (protein VAPB (O95292)): -0.312 | B6 log2 (H4K5ac8ac/H4K5) (protein VAPB (O95292)): 0.06269 | A6 log2 (H4K5ac8ac/H4K5) (protein WAPAL (Q7Z5K2)): 0.1532 | B6 log2 (H4K5ac8ac/H4K5) (protein WAPAL (Q7Z5K2)): -0.009146 | A6 log2 (H4K5ac8ac/H4K5) (protein XRCC5 (P13010)): -0.05414 | B6 log2 (H4K5ac8ac/H4K5) (protein XRCC5 (P13010)): -0.03221 | A6 log2 (H4K5ac8ac/H4K5) [1]: -0.1065 | B6 log2 (H4K5ac8ac/H4K5) [1]: 0.02961 | A6 log2 (H4K5ac8ac/H4K5) (protein ZNF330 (Q9Y3S2)): 0.1967 | B6 log2 (H4K5ac8ac/H4K5) (protein ZNF330 (Q9Y3S2)): -0.03674 | A6 log2 (H4K5ac8ac/H4K5) (protein ZNF579 (Q8NAF0)): -0.0908 | B6 log2 (H4K5ac8ac/H4K5) (protein ZNF579 (Q8NAF0)): 0.0364 | A6 log2 (H4K5ac8ac/H4K5) (protein ZZZ3 (Q8IYH5)): -0.06959 | B6 log2 (H4K5ac8ac/H4K5) (protein ZZZ3 (Q8IYH5)): -0.004188
